Data: US20070087326A1, “Method of measuring the biological activity of an urotensin II receptor” (priority 2005, published 2007)
Bridge positions count the residues as written; N and C are the ends. Square brackets hold non-standard residues; d marks the D form. Peptide text beside a SMILES is read from it. Pen = CC(C)(S)[C@H](N)C(=O)O; Orn = NCCC[C@H](N)C(=O)O

Experiments:
[1] = biological target: T1, endogeneous human U-II receptors (RMS13 cells) (Homo sapiens, UniProt Q9UKP6); assay: CDS (CellKey) electrical impedance assay in RMS13 cells; type: cell-based; conditions: FIG. 3A
T1 construct: Cells of RMS13 and 6D9 have endogeneous human U-II receptors; host or cells: RMS13 (human) and 6D9, a sub-clone of RMS13
T1 sequence (Q9UKP6 1-389): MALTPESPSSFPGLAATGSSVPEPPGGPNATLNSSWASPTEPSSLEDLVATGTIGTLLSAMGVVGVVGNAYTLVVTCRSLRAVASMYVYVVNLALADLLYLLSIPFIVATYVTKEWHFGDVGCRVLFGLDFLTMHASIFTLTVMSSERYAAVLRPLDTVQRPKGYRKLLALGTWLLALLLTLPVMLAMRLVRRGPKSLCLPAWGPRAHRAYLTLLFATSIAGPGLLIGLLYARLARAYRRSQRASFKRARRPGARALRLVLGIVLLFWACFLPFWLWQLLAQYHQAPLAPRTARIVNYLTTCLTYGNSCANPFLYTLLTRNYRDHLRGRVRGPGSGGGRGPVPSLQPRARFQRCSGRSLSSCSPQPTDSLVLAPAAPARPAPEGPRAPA
Description: (§1) RMS13 was obtained from ATCC (ATCC NO: CRL-2061™, Manassas, Va.). […] The parent of the CHOrUII cells, CHO-K1 was obtained from ATCC (CAT# CRL-9618_CHOK1). The rat UT receptor was recombinantly cloned into CHO-K1 following standard molecular biology cloning techniques. The CHOrUII cells were under G418 selection. […] Angiotensin was purchased from Sigma. Urantide (PUT-3639-P1) was purchased from Peptide International (Louisville, Ky.).
(§2) Cells of RMS13 and 6D9 were cultured in RPMI medium (ATCC 30-2001) containing 10% FBS (Cat. No. SH30070.03, Hyclone, Logan, Utah). CHOrUII cells were grown in DMEMF12 (Gibco #11330-032) medium containing G418 at 1 mg/ml concentration. Cells were plated at 60 or 70K/well in a medium indicated above overnight. The medium was removed and replaced with Hanks balanced salt solution (HBSS, Gibco) containing 20 mM Hepes and 0.1% BSA. Electrical impedance was measured 2-5 minutes prior to compound addition. Compounds were added and measurements continued. The electrical impedance of the cells was measured using CellKey™ (MDS Sciex, Concord, Ontario) according to the protocol of the manufacturer, see for example Ciambrone et al. (2004, J Biomol Screen. 9(6): 467-80). […]
(§3) Cell density-dependence responses to Urotensin II (500 nM) were analyzed to determine the optimum cell density for the CDS assay at 28° C.

[2] = biological target: T2, endogeneous human U-II receptors (6D9 cells, sub-clone of RMS13) (Homo sapiens, UniProt Q9UKP6); assay: CDS (CellKey) electrical impedance assay in 6D9 cells; type: cell-based; conditions: FIG. 3B
T2 construct: Cells of RMS13 and 6D9 have endogeneous human U-II receptors; host or cells: RMS13 (human) and 6D9, a sub-clone of RMS13
T2 sequence (Q9UKP6 1-389): T1 sequence (Q9UKP6 1-389)
Description: as §1, §2, §3

[3] = biological target: T3, recombinant rat U-II receptors (CHOrUII cells) (Rattus norvegicus, UniProt P49684); assay: CDS (CellKey) electrical impedance assay in CHOrUII cells; type: cell-based; conditions: FIG. 3C
T3 construct: expressed in transfected cells; host or cells: CHO-K1 (ATCC CRL-9618), G418 selection
T3 sequence (P49684 1-386): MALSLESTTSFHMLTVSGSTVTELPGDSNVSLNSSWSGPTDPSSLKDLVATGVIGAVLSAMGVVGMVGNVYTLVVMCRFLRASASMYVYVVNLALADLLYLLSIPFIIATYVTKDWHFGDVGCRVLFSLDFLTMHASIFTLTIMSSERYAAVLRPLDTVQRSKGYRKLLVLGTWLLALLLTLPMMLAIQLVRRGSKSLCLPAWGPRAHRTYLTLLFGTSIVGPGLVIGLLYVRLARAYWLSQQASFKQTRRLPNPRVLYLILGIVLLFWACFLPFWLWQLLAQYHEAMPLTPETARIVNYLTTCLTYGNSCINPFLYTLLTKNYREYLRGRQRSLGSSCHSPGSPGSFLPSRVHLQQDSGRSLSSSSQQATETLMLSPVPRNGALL
Description: The CHOrUII cells were under G418 selection. […] Urantide (PUT-3639-P1) was purchased from Peptide International (Louisville, Ky.). Cells of RMS13 and 6D9 were cultured in RPMI medium (ATCC 30-2001) containing 10% FBS (Cat. No. SH30070.03, Hyclone, Logan, Utah). CHOrUII cells were grown in DMEMF12 (Gibco #11330-032) medium containing G418 at 1 mg/ml concentration. Cells were plated at 60 or 70K/well in a medium indicated above overnight. The medium was removed and replaced with Hanks balanced salt solution (HBSS, Gibco) containing 20 mM Hepes and 0.1% BSA. Electrical impedance was measured 2-5 minutes prior to compound addition. Compounds were added and measurements continued. […] In particular, 100 mV voltage was applied to the cells with a sweeping frequency range of 1 kHz to […]. Cell density-dependence responses to Urotensin II (500 nM) were analyzed to determine the optimum cell density for the CDS assay at 28° C.

[4] = tested on: panel of receptor/ion channels; assay: binding to a panel of receptor/ion channels; conditions: data not shown
UT receptor = biological target: T4, UT receptor (Rattus norvegicus, UniProt P49684); conditions: competitive UT receptor antagonist, rat aorta (Patacchini, 2003); cited from earlier work
T4 construct: pure UT receptor antagonist in rat aorta vasoconstriction assays; host or cells: rat aorta tissue
T4 sequence (P49684 1-386): T3 sequence (P49684 1-386)

human UT receptor = biological target: T5, human UT receptor (Homo sapiens, UniProt Q9UKP6); conditions: CHO cells over-expressing the human UT receptor (Camarda, 2004); cited from earlier work
T5 construct: host or cells: CHO cells over-expressing the human UT receptor
T5 sequence (Q9UKP6 1-389): T1 sequence (Q9UKP6 1-389)

[5] = biological target: human U-II receptor (endogeneous, on RMS13 and 6D9 cells) (human) (UniProt Q9UKP6); assay: cell-based or functional assay

| EC50 of the dose dependent increase in electrical impedance of 6D9 cells (CDS, CellKey) [5] | EC50 of the dose dependent increase in electrical impedance of RMS13 cells (CDS, CellKey) [5] | Compound | effect on U-II stimulated increase in electrical impedance [1] | effect on U-II stimulated increase in electrical impedance [2] | effect on U-II stimulated increase in electrical impedance [3] | binding activity to proteins within a panel of receptor/ion channels [4] | pA2 (UT receptor) | agonist activity (human UT receptor) |
| --- | --- | --- | --- | --- | --- | --- | --- | --- |
| – | – | CC(C)[C@H](NC(=O)[C@@H]1CSSC(C)(C)[C@H](NC(=O)[C@@H](N)CC(=O)O)C(=O)N[C@@H](Cc2ccccc2)C(=O)N[C@H](Cc2c[nH]c3ccccc23)C(=O)N[C@@H](CCCN)C(=O)N[C@@H](Cc2ccc(O)cc2)C(=O)N1)C(=O)O [Urantide] (H-D[Pen]F[dW][Orn]YCV-OH; disulfide 2-7) | blocked the U-II stimulated increase | blocked the U-II stimulated increase | blocked the U-II stimulated increase | minimal binding activity | 8.3 | potent U-II agonist |
| 0.42 nM | 0.27 nM | Urotensin-II (peptide) | – | – | – | – | – | – |
| – | – | angiotensin | did not | did not | did not | – | – | – |
